PMC12670405, “Second-Generation AURKA-Targeting PROTACs: Structural Optimization toward in Vivo Degradation in Neuroblastoma” (Journal of Medicinal Chemistry, 2025)

Columns and labels:
Experiment in all cases: KINOMEscan scanMAX
Format in all cases: binding
[1] = target: T1, ABL1(F317L)-nonphosphorylated (Homo sapiens, UniProt P00519, F317L); settings: read-out: Percent Control
T1 construct: purchased Eurofins Discovery (DiscoverX KINOMEscan scanMAX)
Method: (§1) The kinome-wide binding assay was performed by Eurofins Discovery using the scanMAX screening platform. More information can be found on the Eurofins Discovery Web site.

AKT1 = target: T2, AKT1 (Homo sapiens, UniProt P31749); settings: read-out: Percent Control
T2 construct: purchased Eurofins Discovery (DiscoverX KINOMEscan scanMAX)
Method: as §1

AKT2 = target: T3, AKT2 (Homo sapiens, UniProt P31751); settings: read-out: Percent Control
T3 construct: purchased Eurofins Discovery (DiscoverX KINOMEscan scanMAX)
Method: as §1

ALK(C1156Y) = target: T4, ALK(C1156Y) (Homo sapiens, UniProt Q9UM73, C1156Y); settings: read-out: Percent Control
T4 construct: purchased Eurofins Discovery (DiscoverX KINOMEscan scanMAX)
Method: as §1

CASK = target: T5, CASK (Homo sapiens, UniProt O14936); settings: read-out: Percent Control
T5 construct: purchased Eurofins Discovery (DiscoverX KINOMEscan scanMAX)
Method: as §1

DDR2 = target: T6, DDR2 (Homo sapiens, UniProt Q16832); settings: read-out: Percent Control
T6 construct: purchased Eurofins Discovery (DiscoverX KINOMEscan scanMAX)
Method: as §1

DYRK1B = target: T7, DYRK1B (Homo sapiens, UniProt Q9Y463); settings: read-out: Percent Control
T7 construct: purchased Eurofins Discovery (DiscoverX KINOMEscan scanMAX)
Method: as §1

EGFR(L861Q) = target: T8, EGFR(L861Q) (Homo sapiens, UniProt P00533, L861Q); settings: read-out: Percent Control
T8 construct: purchased Eurofins Discovery (DiscoverX KINOMEscan scanMAX)
Method: as §1

FLT3 = target: T9, FLT3 (Homo sapiens, UniProt P36888); settings: read-out: Percent Control
T9 construct: purchased Eurofins Discovery (DiscoverX KINOMEscan scanMAX)
Method: as §1

FLT3(D835V) = target: T10, FLT3(D835V) (Homo sapiens, UniProt P36888, D835V); settings: read-out: Percent Control
T10 construct: purchased Eurofins Discovery (DiscoverX KINOMEscan scanMAX)
Method: as §1

FLT3(ITD,F691L) = test system: FLT3(ITD,F691L)
Method: as §1

FRK = target: T11, FRK (Homo sapiens, UniProt P42685); settings: read-out: Percent Control
T11 construct: purchased Eurofins Discovery (DiscoverX KINOMEscan scanMAX)
Method: as §1

GCN2(Kin.Dom.2,S808G) = target: T12, GCN2(Kin.Dom.2,S808G) (Homo sapiens, UniProt Q9P2K8, S808G); settings: read-out: Percent Control
T12 construct: GCN2(Kin.Dom.2,S808G); purchased Eurofins Discovery (DiscoverX KINOMEscan scanMAX)
T12 sequence (Q9P2K8 590-1001 S808G limits assumed): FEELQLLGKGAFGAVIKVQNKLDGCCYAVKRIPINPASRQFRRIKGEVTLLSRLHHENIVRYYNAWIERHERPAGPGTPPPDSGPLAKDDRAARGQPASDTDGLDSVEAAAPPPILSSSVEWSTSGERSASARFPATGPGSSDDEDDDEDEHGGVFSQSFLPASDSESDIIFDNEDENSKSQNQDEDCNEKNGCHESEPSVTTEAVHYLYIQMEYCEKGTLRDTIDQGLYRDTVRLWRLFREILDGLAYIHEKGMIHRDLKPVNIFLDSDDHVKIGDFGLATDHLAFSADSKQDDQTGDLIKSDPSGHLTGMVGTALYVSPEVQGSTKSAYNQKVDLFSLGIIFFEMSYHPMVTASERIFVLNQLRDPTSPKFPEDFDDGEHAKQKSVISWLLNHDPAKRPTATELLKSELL
Method: as §1

INSR = target: T13, INSR (Homo sapiens, UniProt P06213); settings: read-out: Percent Control
T13 construct: purchased Eurofins Discovery (DiscoverX KINOMEscan scanMAX)
Method: as §1

JNK1 = target: T14, JNK1 (Homo sapiens, UniProt P45983); settings: read-out: Percent Control
T14 construct: purchased Eurofins Discovery (DiscoverX KINOMEscan scanMAX)
Method: as §1

JNK3 = target: T15, JNK3 (Homo sapiens, UniProt P53779); settings: read-out: Percent Control
T15 construct: purchased Eurofins Discovery (DiscoverX KINOMEscan scanMAX)
T15 sequence (P53779 whole entry): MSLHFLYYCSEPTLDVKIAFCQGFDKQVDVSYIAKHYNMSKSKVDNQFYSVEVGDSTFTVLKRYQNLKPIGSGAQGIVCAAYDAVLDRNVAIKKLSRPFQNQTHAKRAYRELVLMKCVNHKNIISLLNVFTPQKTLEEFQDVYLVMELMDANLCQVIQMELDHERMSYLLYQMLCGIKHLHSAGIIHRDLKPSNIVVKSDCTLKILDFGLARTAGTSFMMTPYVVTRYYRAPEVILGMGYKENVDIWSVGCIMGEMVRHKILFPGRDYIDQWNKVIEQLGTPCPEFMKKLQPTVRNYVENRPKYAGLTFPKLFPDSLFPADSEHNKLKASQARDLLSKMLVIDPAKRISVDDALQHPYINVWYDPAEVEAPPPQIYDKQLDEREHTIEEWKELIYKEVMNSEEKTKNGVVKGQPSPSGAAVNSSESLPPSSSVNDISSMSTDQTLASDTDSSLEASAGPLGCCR
Method: as §1

KIT(L576P) = target: T16, KIT(L576P) (Homo sapiens, UniProt P10721, L576P); settings: read-out: Percent Control
T16 construct: purchased Eurofins Discovery (DiscoverX KINOMEscan scanMAX)
Method: as §1

KIT(V559D,V654A) = target: T17, KIT(V559D,V654A) (Homo sapiens, UniProt P10721, V559D/V654A); settings: read-out: Percent Control
T17 construct: purchased Eurofins Discovery (DiscoverX KINOMEscan scanMAX)
Method: as §1

LKB1 = target: T18, LKB1 (Homo sapiens, UniProt Q15831); settings: read-out: Percent Control
T18 construct: purchased Eurofins Discovery (DiscoverX KINOMEscan scanMAX)
T18 sequence (Q15831 whole entry): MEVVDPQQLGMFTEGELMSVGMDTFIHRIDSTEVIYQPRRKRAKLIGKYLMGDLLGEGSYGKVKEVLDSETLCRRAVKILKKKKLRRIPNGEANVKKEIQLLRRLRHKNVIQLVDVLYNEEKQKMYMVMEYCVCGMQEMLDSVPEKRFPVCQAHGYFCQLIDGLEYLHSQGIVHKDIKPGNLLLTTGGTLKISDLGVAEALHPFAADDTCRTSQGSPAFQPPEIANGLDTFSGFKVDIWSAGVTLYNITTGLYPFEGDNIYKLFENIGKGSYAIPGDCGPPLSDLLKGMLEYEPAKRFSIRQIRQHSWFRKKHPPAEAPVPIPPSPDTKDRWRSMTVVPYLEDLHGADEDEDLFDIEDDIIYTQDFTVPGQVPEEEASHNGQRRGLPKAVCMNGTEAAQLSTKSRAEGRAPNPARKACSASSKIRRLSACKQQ
Method: as §1

MLK3 = target: T19, MLK3 (Homo sapiens, UniProt Q16584); settings: read-out: Percent Control
T19 construct: purchased Eurofins Discovery (DiscoverX KINOMEscan scanMAX)
T19 sequence (Q16584 whole entry): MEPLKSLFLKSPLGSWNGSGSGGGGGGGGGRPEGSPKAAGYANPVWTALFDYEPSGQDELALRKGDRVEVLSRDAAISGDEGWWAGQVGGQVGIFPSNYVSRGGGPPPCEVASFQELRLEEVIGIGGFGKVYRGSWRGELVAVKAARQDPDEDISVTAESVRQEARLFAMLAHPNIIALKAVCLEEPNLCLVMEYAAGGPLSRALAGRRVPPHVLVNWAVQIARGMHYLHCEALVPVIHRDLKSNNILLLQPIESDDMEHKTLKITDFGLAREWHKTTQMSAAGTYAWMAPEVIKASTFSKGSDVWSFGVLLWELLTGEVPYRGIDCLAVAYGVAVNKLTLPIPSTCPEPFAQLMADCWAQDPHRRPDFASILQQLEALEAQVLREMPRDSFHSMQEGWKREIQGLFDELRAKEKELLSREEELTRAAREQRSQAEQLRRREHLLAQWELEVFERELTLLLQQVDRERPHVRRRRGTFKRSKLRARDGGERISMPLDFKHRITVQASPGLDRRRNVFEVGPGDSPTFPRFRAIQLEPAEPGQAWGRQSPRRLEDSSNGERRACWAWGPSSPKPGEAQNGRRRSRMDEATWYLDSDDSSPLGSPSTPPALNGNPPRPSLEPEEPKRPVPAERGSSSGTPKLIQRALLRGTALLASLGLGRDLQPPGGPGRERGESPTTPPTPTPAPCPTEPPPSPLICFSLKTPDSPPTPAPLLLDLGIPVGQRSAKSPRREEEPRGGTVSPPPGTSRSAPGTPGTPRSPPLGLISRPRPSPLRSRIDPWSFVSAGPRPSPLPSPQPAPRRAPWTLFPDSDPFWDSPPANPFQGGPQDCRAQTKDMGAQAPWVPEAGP
Method: as §1

MRCKB = target: T20, MRCKB (Homo sapiens, UniProt Q9Y5S2); settings: read-out: Percent Control
T20 construct: purchased Eurofins Discovery (DiscoverX KINOMEscan scanMAX)
Method: as §1

NEK10 = target: T21, NEK10 (Homo sapiens, UniProt Q6ZWH5); settings: read-out: Percent Control
T21 construct: purchased Eurofins Discovery (DiscoverX KINOMEscan scanMAX)
Method: as §1

PAK4 = target: T22, PAK4 (Homo sapiens, UniProt O96013); settings: read-out: Percent Control
T22 construct: purchased Eurofins Discovery (DiscoverX KINOMEscan scanMAX)
Method: as §1

PIK3CA(H1047Y) = target: T23, PIK3CA(H1047Y) (Homo sapiens, UniProt P42336, H1047Y); settings: read-out: Percent Control
T23 construct: purchased Eurofins Discovery (DiscoverX KINOMEscan scanMAX)
T23 sequence (P42336 whole entry H1047Y): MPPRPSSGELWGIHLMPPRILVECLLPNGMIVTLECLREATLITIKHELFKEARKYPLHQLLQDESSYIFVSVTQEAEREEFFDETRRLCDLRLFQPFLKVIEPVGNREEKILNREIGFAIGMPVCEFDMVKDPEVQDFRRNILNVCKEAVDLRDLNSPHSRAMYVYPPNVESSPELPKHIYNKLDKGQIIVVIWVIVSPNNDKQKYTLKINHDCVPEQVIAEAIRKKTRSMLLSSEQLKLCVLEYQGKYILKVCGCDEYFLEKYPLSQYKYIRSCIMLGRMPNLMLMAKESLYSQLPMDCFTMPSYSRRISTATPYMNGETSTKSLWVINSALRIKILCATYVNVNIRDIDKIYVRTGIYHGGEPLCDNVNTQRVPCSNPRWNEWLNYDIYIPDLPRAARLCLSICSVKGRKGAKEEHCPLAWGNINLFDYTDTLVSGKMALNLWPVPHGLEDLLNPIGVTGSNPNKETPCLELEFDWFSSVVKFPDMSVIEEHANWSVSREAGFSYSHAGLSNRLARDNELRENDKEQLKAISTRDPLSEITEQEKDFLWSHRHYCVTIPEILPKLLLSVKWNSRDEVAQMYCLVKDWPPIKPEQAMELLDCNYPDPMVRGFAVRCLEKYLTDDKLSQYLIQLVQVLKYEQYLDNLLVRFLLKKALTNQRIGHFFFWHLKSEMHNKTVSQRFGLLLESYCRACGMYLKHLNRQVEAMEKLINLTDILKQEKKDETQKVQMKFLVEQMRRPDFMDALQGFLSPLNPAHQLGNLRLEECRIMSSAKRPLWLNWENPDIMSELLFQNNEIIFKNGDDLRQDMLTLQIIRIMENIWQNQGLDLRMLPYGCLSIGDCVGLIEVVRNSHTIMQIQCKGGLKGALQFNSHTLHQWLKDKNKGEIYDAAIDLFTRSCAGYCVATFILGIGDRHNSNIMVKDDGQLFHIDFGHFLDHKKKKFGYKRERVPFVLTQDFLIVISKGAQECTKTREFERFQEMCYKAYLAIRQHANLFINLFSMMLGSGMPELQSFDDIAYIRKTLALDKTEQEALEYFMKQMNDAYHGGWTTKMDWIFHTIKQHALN
Method: as §1

PIM3 = target: T24, PIM3 (Homo sapiens, UniProt Q86V86); settings: read-out: Percent Control
T24 construct: purchased Eurofins Discovery (DiscoverX KINOMEscan scanMAX)
Method: as §1

PLK3 = target: T25, PLK3 (Homo sapiens, UniProt Q9H4B4); settings: read-out: Percent Control
T25 construct: purchased Eurofins Discovery (DiscoverX KINOMEscan scanMAX)
Method: as §1

[2] = target: T26, RPS6KA4(Kin.Dom.2-C-terminal) (Homo sapiens, UniProt O75676); settings: read-out: Percent Control
T26 construct: RPS6KA4(Kin.Dom.2-C-terminal); purchased Eurofins Discovery (DiscoverX KINOMEscan scanMAX)
Method: as §1

[3] = target: T27, RPS6KA5(Kin.Dom.1-N-terminal) (Homo sapiens, UniProt O75582); settings: read-out: Percent Control
T27 construct: RPS6KA5(Kin.Dom.1-N-terminal); purchased Eurofins Discovery (DiscoverX KINOMEscan scanMAX)
Method: as §1

SGK3 = target: T28, SGK3 (Homo sapiens, UniProt Q96BR1); settings: read-out: Percent Control
T28 construct: purchased Eurofins Discovery (DiscoverX KINOMEscan scanMAX)
Method: as §1

TLK2 = target: T29, TLK2 (Homo sapiens, UniProt Q86UE8); settings: read-out: Percent Control
T29 construct: purchased Eurofins Discovery (DiscoverX KINOMEscan scanMAX)
T29 sequence (Q86UE8 whole entry): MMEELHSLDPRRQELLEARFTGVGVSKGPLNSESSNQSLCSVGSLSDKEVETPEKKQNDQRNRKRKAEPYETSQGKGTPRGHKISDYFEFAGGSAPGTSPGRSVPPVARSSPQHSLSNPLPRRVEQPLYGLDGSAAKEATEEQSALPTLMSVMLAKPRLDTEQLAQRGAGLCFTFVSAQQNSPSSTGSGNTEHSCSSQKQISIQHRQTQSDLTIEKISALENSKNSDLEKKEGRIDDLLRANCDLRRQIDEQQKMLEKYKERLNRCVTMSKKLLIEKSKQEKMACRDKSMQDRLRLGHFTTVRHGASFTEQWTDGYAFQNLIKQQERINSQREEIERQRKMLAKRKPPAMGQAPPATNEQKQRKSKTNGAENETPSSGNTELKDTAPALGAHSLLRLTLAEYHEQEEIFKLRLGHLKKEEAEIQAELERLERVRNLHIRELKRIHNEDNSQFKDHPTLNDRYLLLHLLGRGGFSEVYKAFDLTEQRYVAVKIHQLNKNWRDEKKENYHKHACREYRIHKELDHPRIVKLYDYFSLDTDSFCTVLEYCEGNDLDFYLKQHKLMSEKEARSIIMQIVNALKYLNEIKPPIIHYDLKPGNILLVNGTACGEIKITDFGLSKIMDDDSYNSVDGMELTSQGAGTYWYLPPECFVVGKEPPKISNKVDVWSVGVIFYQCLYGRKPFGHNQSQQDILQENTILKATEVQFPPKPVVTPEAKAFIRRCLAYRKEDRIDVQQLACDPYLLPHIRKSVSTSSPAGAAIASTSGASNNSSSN
Method: as §1

VPS34 = target: T30, VPS34 (Homo sapiens, UniProt Q8NEB9); settings: read-out: Percent Control
T30 construct: purchased Eurofins Discovery (DiscoverX KINOMEscan scanMAX)
Method: as §1

p38-beta = target: T31, p38-beta (Homo sapiens, UniProt Q15759); settings: read-out: Percent Control
T31 construct: purchased Eurofins Discovery (DiscoverX KINOMEscan scanMAX)
T31 sequence (Q15759 whole entry): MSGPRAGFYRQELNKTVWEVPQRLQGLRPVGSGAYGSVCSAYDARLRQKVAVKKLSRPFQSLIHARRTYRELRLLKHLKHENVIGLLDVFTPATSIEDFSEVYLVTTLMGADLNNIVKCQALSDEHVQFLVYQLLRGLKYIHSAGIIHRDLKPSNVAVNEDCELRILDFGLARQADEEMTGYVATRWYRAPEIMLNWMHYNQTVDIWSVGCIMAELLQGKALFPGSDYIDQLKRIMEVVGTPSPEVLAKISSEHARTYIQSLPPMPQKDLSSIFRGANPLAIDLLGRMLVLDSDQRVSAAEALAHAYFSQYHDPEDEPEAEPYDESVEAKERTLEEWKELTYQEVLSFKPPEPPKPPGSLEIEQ
Method: as §1

Cc1cc(Nc2ccc(F)c(CC3(C(=O)N4CCC(F)(CN5CCN(c6ccc(N7CCC(=O)NC7=O)cn6)CC5)CC4)CCN(Cc4cccc(Cl)c4F)CC3)n2)n[nH]1 [SK5527]
remaining binding at 0.1 µM ([1]; 100 nM): 97%
remaining binding at 1 µM ([1]; 1000 nM): 49%
remaining binding at 0.1 µM (AKT1; 100 nM): 78%
remaining binding at 1 µM (AKT1; 1000 nM): 100%
remaining binding at 0.1 µM (AKT2; 100 nM): 98%
remaining binding at 1 µM (AKT2; 1000 nM): 98%
remaining binding at 0.1 µM (ALK(C1156Y); 100 nM): 87%
remaining binding at 1 µM (ALK(C1156Y); 1000 nM): 100%
remaining binding at 0.1 µM (CASK; 100 nM): 93%
remaining binding at 1 µM (CASK; 1000 nM): 87%
remaining binding at 0.1 µM (DDR2; 100 nM): 98%
remaining binding at 1 µM (DDR2; 1000 nM): 100%
remaining binding at 0.1 µM (DYRK1B; 100 nM): 98%
remaining binding at 1 µM (DYRK1B; 1000 nM): 74%
remaining binding at 0.1 µM (EGFR(L861Q); 100 nM): 95%
remaining binding at 1 µM (EGFR(L861Q); 1000 nM): 100%
remaining binding at 0.1 µM (FLT3; 100 nM): 90%
remaining binding at 1 µM (FLT3; 1000 nM): 77%
remaining binding at 0.1 µM (FLT3(D835V); 100 nM): 100%
remaining binding at 1 µM (FLT3(D835V); 1000 nM): 41%
Percent Control (FLT3(ITD,F691L); 100 nM): 100%
Percent Control (FLT3(ITD,F691L); 1000 nM): 75%
remaining binding at 0.1 µM (FRK; 100 nM): 100%
remaining binding at 1 µM (FRK; 1000 nM): 96%
remaining binding at 0.1 µM (GCN2(Kin.Dom.2,S808G); 100 nM): 98%
remaining binding at 1 µM (GCN2(Kin.Dom.2,S808G); 1000 nM): 100%
remaining binding at 0.1 µM (INSR; 100 nM): 85%
remaining binding at 1 µM (INSR; 1000 nM): 85%
remaining binding at 0.1 µM (JNK1; 100 nM): 72%
remaining binding at 1 µM (JNK1; 1000 nM): 95%
remaining binding at 0.1 µM (JNK3; 100 nM): 63%
remaining binding at 1 µM (JNK3; 1000 nM): 69%
remaining binding at 0.1 µM (KIT(L576P); 100 nM): 100%
remaining binding at 1 µM (KIT(L576P); 1000 nM): 100%
remaining binding at 0.1 µM (KIT(V559D,V654A); 100 nM): 100%
remaining binding at 1 µM (KIT(V559D,V654A); 1000 nM): 97%
remaining binding at 0.1 µM (LKB1; 100 nM): 82%
remaining binding at 1 µM (LKB1; 1000 nM): 83%
remaining binding at 0.1 µM (MLK3; 100 nM): 85%
remaining binding at 1 µM (MLK3; 1000 nM): 100%
remaining binding at 0.1 µM (MRCKB; 100 nM): 98%
remaining binding at 1 µM (MRCKB; 1000 nM): 93%
remaining binding at 0.1 µM (NEK10; 100 nM): 100%
remaining binding at 1 µM (NEK10; 1000 nM): 100%
remaining binding at 0.1 µM (PAK4; 100 nM): 100%
remaining binding at 1 µM (PAK4; 1000 nM): 81%
remaining binding at 0.1 µM (PIK3CA(H1047Y); 100 nM): 95%
remaining binding at 1 µM (PIK3CA(H1047Y); 1000 nM): 100%
remaining binding at 0.1 µM (PIM3; 100 nM): 100%
remaining binding at 1 µM (PIM3; 1000 nM): 100%
remaining binding at 0.1 µM (PLK3; 100 nM): 100%
remaining binding at 1 µM (PLK3; 1000 nM): 86%
remaining binding at 0.1 µM ([2]; 100 nM): 85%
remaining binding at 1 µM ([2]; 1000 nM): 77%
remaining binding at 0.1 µM ([3]; 100 nM): 95%
remaining binding at 1 µM ([3]; 1000 nM): 100%
remaining binding at 0.1 µM (SGK3; 100 nM): 100%
remaining binding at 1 µM (SGK3; 1000 nM): 88%
remaining binding at 0.1 µM (TLK2; 100 nM): 100%
remaining binding at 1 µM (TLK2; 1000 nM): 94%
remaining binding at 0.1 µM (VPS34; 100 nM): 92%
remaining binding at 1 µM (VPS34; 1000 nM): 39%
remaining binding at 0.1 µM (p38-beta; 100 nM): 100%
remaining binding at 1 µM (p38-beta; 1000 nM): 99%
